Measured values: US9914736B2, “TrKA kinase inhibitors, compositions and methods thereof” (Merck Sharp & Dohme Corp., priority 2014, dated 2018)

target: human TrkA receptor (Homo sapiens (Human), UniProt P04629); assay: DiscoverX PathHunter TrkA functional assay; format: cell-based; settings: U2OS cells expressing human TrkA-ProLink, Shc1-EA and p75NTR; compound 1 h, then NGF at ~80% of maximal response for 3 h; luminescence
Sequence (P04629 33-796): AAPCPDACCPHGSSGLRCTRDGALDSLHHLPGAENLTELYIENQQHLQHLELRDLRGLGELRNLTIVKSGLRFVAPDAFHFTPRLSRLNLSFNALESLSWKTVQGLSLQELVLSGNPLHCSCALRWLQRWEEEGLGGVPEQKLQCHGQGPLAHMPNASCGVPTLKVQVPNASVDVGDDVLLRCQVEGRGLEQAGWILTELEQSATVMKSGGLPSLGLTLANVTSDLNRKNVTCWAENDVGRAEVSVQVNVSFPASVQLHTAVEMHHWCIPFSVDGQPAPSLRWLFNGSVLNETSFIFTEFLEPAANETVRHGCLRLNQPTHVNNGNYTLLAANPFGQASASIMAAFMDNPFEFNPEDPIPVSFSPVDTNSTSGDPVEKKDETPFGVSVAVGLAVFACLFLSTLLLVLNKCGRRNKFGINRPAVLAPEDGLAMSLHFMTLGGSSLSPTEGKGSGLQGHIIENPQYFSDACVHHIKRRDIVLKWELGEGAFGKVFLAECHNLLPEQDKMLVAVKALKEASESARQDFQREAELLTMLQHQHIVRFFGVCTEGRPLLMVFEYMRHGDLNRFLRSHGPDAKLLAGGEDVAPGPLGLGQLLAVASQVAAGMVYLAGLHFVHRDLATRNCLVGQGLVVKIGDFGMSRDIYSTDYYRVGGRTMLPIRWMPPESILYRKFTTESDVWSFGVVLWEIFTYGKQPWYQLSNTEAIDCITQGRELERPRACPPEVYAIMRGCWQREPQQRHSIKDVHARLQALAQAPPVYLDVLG
Description: TrkA functional activity was measured using a DiscoverX PathHunter assay. In this assay, U2OS cells express the human TrkA receptor as a fusion with the weakly complementing fragment of B-galactosidase, which DiscoverX calls “Prolink (PK)”; additionally, Shc1 is fused with a larger fragment, which is called “Enzyme Acceptor (EA)”. Activation of the TrkA receptor, upon NGF addition, results in the kinase domain being phosphorylated, resulting in subsequent recruitment of Shc1-EA protein. That recruitment results in an active B-galactosidase enzyme that is detected by addition of a chemiluminescent substrate. The human p75^NTR protein was also expressed as a co-receptor for NGF.
All reagents were purchased from DiscoverX, except for the receptor agonists (NGF, BDNF, NT3) which were purchased from Peprotech. Cells were expanded and frozen into cryovials, and stored in the vapor phase of liquid nitrogen, and thawed immediately before use. Thawed cells were added to a 384-well plate at 7500 cells/well, and allowed to incubate overnight. Compound at various concentrations was added the following morning and allowed to incubate on cells for 1 h. Then, NGF was added at a concentration sufficient to elicit ˜80% of a maximal response and allowed to incubate for 3 h at ambient temperature. DiscoverX PathHunter detection reagent was then added and the plate was further incubated for 1 h in the dark. The plate was then read via luminescence on the Perkin Elmer Envision.

SMILES | IC50
Cc1cccc(-c2cc(C(=O)Nc3cc(-c4ccncc4)nn3-c3ccc(F)cc3)ccc2C(F)(F)F)n1 [Compound 30, N-[1-(4-fluorophenyl)-3-pyridin-4-yl-1H-pyrazol-5-yl]-3-(6-methylpyridin-2-yl)-4-(trifluoromethyl)benzamide] | 5.5 nM
Cc1cccnc1-c1cc(C(=O)Nc2cc(-c3ccncc3)nn2-c2ccc(F)cc2)ccc1C(F)(F)F [Compound 31, N-[1-(4-fluorophenyl)-3-pyridin-4-yl-1H-pyrazol-5-yl]-3-(3-methylpyridin-2-yl)-4-(trifluoromethyl)benzamide] | 860 nM
Cc1nc(-c2ccccc2)c(NC(=O)c2ccc(C(F)(F)F)c(-c3ccn(C)n3)c2)s1 [Compound 32, N-(2-methyl-4-phenyl-1,3-thiazol-5-yl)-3-(1-methyl-1H-pyrazol-3-yl)-4-(trifluoromethyl)benzamide] | 6 nM
CC(=O)n1cc(NC(=O)c2ccc(C(F)(F)F)c(-c3ccn(C)n3)c2)c(-c2ccccc2)n1 [Compound 33, N-(1-acetyl-3-phenyl-1H-pyrazol-4-yl)-3-(1-methyl-1H-pyrazol-3-yl)-4-(trifluoromethyl)benzamide] | 18 nM
O=C(Nc1cc(-c2ccncc2)nn1-c1ccc(F)cc1)c1ccc(C(F)(F)F)c(-c2cccnc2)c1 [Compound 35, N-[1-(4-fluorophenyl)-3-pyridin-4-yl-1H-pyrazol-5-yl]-3-pyridin-3-yl-4-(trifluoromethyl)benzamide] | 1700 nM
Cn1ccc(-c2cc(C(=O)Nc3cc(-c4ccncc4)nn3-c3ccccc3)c(Cl)cc2C(F)(F)F)n1 [Compound 36, 2-chloro-5-(1-methyl-1H-pyrazol-3-yl)-N-(1-phenyl-3-pyridin-4-yl-1H-pyrazol-5-yl)-4-(trifluoromethyl)benzamide] | 0.37 nM
Cn1ccc(-c2cc(C(=O)Nc3cnoc3-c3ccccc3)ccc2C(F)(F)F)n1 [Compound 37, 3-(1-methyl-1H-pyrazol-3-yl)-N-(5-phenylisoxazol-4-yl)-4-(trifluoromethyl)benzamide] | 180 nM
O=C(Nc1cc(-c2ccncc2)nn1-c1ccccc1)c1cc(-c2cc[nH]n2)c(C(F)(F)F)cc1Cl [Compound 39, 2-chloro-N-(1-phenyl-3-pyridin-4-yl-1H-pyrazol-5-yl)-5-(1H-pyrazol-3-yl)-4-(trifluoromethyl)benzamide] | 2.9 nM
Cn1ccc(-c2cc(C(=O)Nc3cc(-c4ccncc4)nn3-c3cc(C(F)(F)F)n[nH]3)ccc2Cl)n1 [Compound 40, 4-chloro-3-(1-methyl-1H-pyrazol-3-yl)-N-[3-pyridin-4-yl-5′-(trifluoromethyl)-2′H-1,3′-bipyrazol-5-yl]benzamide] | 3.2 nM
O=C(Nc1cc(-c2ccncc2)nn1-c1cc(C(F)(F)F)n[nH]1)c1ccc(Cl)c(-c2cc[nH]n2)c1 [Compound 41, 4-chloro-3-(1H-pyrazol-3-yl)-N-[3-pyridin-4-yl-5′-(trifluoromethyl)-2′H-1,3′-bipyrazol-5-yl]benzamide] | 240 nM
O=C(Nc1cc(-c2ccncc2)nn1-c1ccc(F)cc1)c1ccc(Cl)c(-c2cc[nH]n2)c1 [Compound 42, 4-chloro-N-[1-(4-fluorophenyl)-3-pyridin-4-yl-1H-pyrazol-5-yl]-3-(1H-pyrazol-3-yl)benzamide] | 110 nM
Cn1ccc(-c2cc(C(=O)Nc3cn(C)nc3-c3ccccc3)ccc2C(F)(F)F)n1 [Compound 43, N-(1-methyl-3-phenyl-1H-pyrazol-4-yl)-3-(1-methyl-1H-pyrazol-3-yl)-4-(trifluoromethyl)benzamide] | 11 nM
Cc1c(-c2cnn(C)c2)nn(-c2ccccc2)c1NC(=O)c1ccc(C(F)(F)F)c(-c2ccn(C)n2)c1 [Compound 44, N-(1′,4-dimethyl-1-phenyl-1H,1′H-3,4′-bipyrazol-5-yl)-3-(1-methyl-1H-pyrazol-3-yl)-4-(trifluoromethyl)benzamide] | 11 nM
Cn1ccc(-c2cc(C(=O)Nc3[nH]ncc3-c3ccccc3)c(Cl)cc2C(F)(F)F)n1 [Compound 45, 2-chloro-5-(1-methyl-1H-pyrazol-3-yl)-N-(4-phenyl-1H-pyrazol-5-yl)-4-(trifluoromethyl)benzamide] | 7 nM
Cc1cnn(-c2ccccc2)c1NC(=O)c1cc(-c2ccn(C)n2)c(C(F)(F)F)cc1Cl [Compound 46, 2-chloro-N-(4-methyl-1-phenyl-1H-pyrazol-5-yl)-5-(1-methyl-1H-pyrazol-3-yl)-4-(trifluoromethyl)benzamide] | 13 nM
O=C(Nc1cc(-c2ccncc2)nn1-c1ccc(F)cc1)c1ccc(C(F)(F)F)c(-c2cc[nH]c(=O)c2)c1 [Compound 47, N-[1-(4-fluorophenyl)-3-pyridin-4-yl-1H-pyrazol-5-yl]-3-(2-oxo-1,2-dihydropyridin-4-yl)-4-(trifluoromethyl)benzamide] | 1240 nM
Cc1cc(NC(=O)c2cc(-c3ccn(C)n3)c(C(F)(F)F)cc2Cl)n(-c2cc(C)[nH]n2)n1 [Compound 48, 2-chloro-N-(3,5′-dimethyl-1′H-1,3′-bipyrazol-5-yl)-5-(1-methyl-1H-pyrazol-3-yl)-4-(trifluoromethyl)benzamide] | 0.82 nM

SMILES | IC50
Cn1ccc(-c2cc(C(=O)Nc3cn[nH]c3-c3ccccc3)c(Cl)cc2C(F)(F)F)n1 [Compound 49, 2-chloro-5-(1-methyl-1H-pyrazol-3-yl)-N-(5-phenyl-1H-pyrazol-4-yl)-4-(trifluoromethyl)benzamide] | 5.8 nM
Cn1ccc(-c2cc(C(=O)Nc3c(-c4ccccc4)nc(C(N)=O)n3C)ccc2C(F)(F)F)n1 [Compound 50, 1-methyl-5-({[3-(1-methyl-1H-pyrazol-3-yl)-4-(trifluoromethyl)phenyl]carbonyl}amino)-4-phenyl-1H-imidazole-2-carboxamide] | 5.7 nM
Cc1cc(-n2nc(CO)cc2NC(=O)c2ccc(C(F)(F)F)c(-c3ccn(C)n3)c2)[nH]n1 [Compound 51] | 2.9 nM
Cc1nc(-c2ccncc2)c(NC(=O)c2ccc(C(F)(F)F)c(-c3ccn(C)n3)c2)n1C [Compound 52, N-(1,2-dimethyl-4-pyridin-4-yl-1H-imidazol-5-yl)-3-(1-methyl-1H-pyrazol-3-yl)-4-(trifluoromethyl)benzamide] | 2100 nM
Cc1nc(-c2nc(C)n(C)c2NC(=O)c2ccc(C(F)(F)F)c(-c3ccn(C)n3)c2)cs1 [Compound 53, N-[1,2-dimethyl-4-(2-methyl-1,3-thiazol-4-yl)-1H-imidazol-5-yl]-3-(1-methyl-1H-pyrazol-3-yl)-4-(trifluoromethyl)benzamide] | 590 nM
Cc1cc(NC(=O)c2cc(-c3cc[nH]n3)ccc2Cl)n(-c2cc(C)[nH]n2)n1 [Compound 54, 2-chloro-N-(3,5′-dimethyl-1′H-1,3′-bipyrazol-5-yl)-5-(1H-pyrazol-3-yl)benzamide] | 490 nM
Cn1ccc(-c2cc(C(=O)Nc3cc(-c4ccc(=O)[nH]n4)nn3-c3ccccc3)c(Cl)cc2C(F)(F)F)n1 [Compound 55, 2-chloro-5-(1-methyl-1H-pyrazol-3-yl)-N-[3-(6-oxo-1,6-dihydropyridazin-3-yl)-1-phenyl-1H-pyrazol-5-yl]-4-(trifluoromethyl)benzamide] | 1.6 nM
Cc1cc(-n2nc(-c3ccc(=O)[nH]n3)cc2NC(=O)c2ccc(C(F)(F)F)c(-c3ncccn3)c2)n[nH]1 [Compound 57, N-[5′-methyl-3-(6-oxo-1,6-dihydropyridazin-3-yl)-1′H-1,3′-bipyrazol-5-yl]-3-pyrimidin-2-yl-4-(trifluoromethyl)benzamide] | 78 nM
Cn1ccc(-c2cc(C(=O)Nc3cc(Cc4nnn(C)n4)nn3-c3ccccc3)c(Cl)cc2C(F)(F)F)n1 [Compound 58, 2-chloro-5-(1-methyl-1H-pyrazol-3-yl)-N-{3-[(2-methyl-2H-tetrazol-5-yl)methyl]-1-phenyl-1H-pyrazol-5-yl}-4-(trifluoromethyl)benzamide] | 3.4 nM
Cn1ccc(-c2cc(C(=O)Nc3cc(Cc4nnnn4C)nn3-c3ccccc3)c(Cl)cc2C(F)(F)F)n1 [Compound 59, 2-chloro-5-(1-methyl-1H-pyrazol-3-yl)-N-{3-[(1-methyl-1H-tetrazol-5-yl)methyl]-1-phenyl-1H-pyrazol-5-yl}-4-(trifluoromethyl)benzamide] | 1.7 nM
Cn1ccc(-c2cc(C(=O)Nc3cc(-c4ncccn4)nn3-c3ccc(F)cc3)ccc2C(F)(F)F)n1 [Compound 60, N-[1-(4-fluorophenyl)-3-pyrimidin-2-yl-1H-pyrazol-5-yl]-3-(1-methyl-1H-pyrazol-3-yl)-4-(trifluoromethyl)benzamide] | 3 nM
Cc1coc(-c2cc(C(=O)Nc3cc(-c4cn[nH]c4)nn3-c3cc(C)[nH]n3)ccc2C(F)(F)F)n1 [Compound 61, 3-(4-methyl-1,3-oxazol-2-yl)-N-(5-methyl-1H,1″H-3,1′:3′,4″-terpyrazol-5′-yl)-4-(trifluoromethyl)benzamide] | 3.1 nM
O=C(Nc1cn[nH]c1-c1ccccc1)c1cc(-c2cc[nH]n2)c(C(F)(F)F)cc1F [Compound 62, 2-fluoro-N-(5-phenyl-1H-pyrazol-4-yl)-5-(1H-pyrazol-3-yl)-4-(trifluoromethyl)benzamide] | 85 nM
Cc1nc(-c2ccccc2)c(NC(=O)c2cc(-c3ccn(C)n3)c(C(F)(F)F)cc2F)n1C [Compound 63, N-(1,2-dimethyl-4-phenyl-1H-imidazol-5-yl)-2-fluoro-5-(1-methyl-1H-pyrazol-3-yl)-4-(trifluoromethyl)benzamide] | 8.4 nM
O=C(Nc1cc(-c2ncccn2)nn1-c1ccc(F)cc1)c1cc(-c2cc[nH]n2)c(C(F)(F)F)cc1F [Compound 64, 2-fluoro-N-[1-(4-fluorophenyl)-3-pyrimidin-2-yl-1H-pyrazol-5-yl]-5-(1H-pyrazol-3-yl)-4-(trifluoromethyl)benzamide] | 22 nM
Cn1ccc(-c2cc(C(=O)Nc3cn(C)nc3-c3ccccc3)c(F)cc2C(F)(F)F)n1 [Compound 65, 2-fluoro-N-(1-methyl-3-phenyl-1H-pyrazol-4-yl)-5-(1-methyl-1H-pyrazol-3-yl)-4-(trifluoromethyl)benzamide] | 4.5 nM
Cn1ccc(-c2cc(C(=O)Nc3cc(Cn4cnnn4)nn3-c3ccccc3)ccc2C(F)(F)F)n1 [Compound 66, 3-(1-methyl-1H-pyrazol-3-yl)-N-[1-phenyl-3-(1H-tetrazol-1-ylmethyl)-1H-pyrazol-5-yl]-4-(trifluoromethyl)benzamide] | 2.3 nM
